Assay in all cases: MIC of amino acids and amino acid analogues on M9 agar test plates
Common to all, as to assay type: cell-based

Assay [1] has as its system E. coli strain N99 rhtB::cat. To be noted: Escherichia coli. How it is done: To inactivate the chromosomal rhtB gene the plasmid pNPZ46 was constructed (FIG. 1) on the basis of pUK21 vector. It harbors a DNA fragment from 86 min of E. coli chromosome, with the rhtB gene and 5′-flanking and 3′-flanking regions thereof. Then the ClaI-Eco47III fragment of the pNPZ46 plasmid rhtB gene was substituted for AsuII-BsrBI fragment containing cat (Cm^R) gene of pACYC184 plasmid (Chang and Cohen, J. Bacteriol., 134, 1141-1156, 1978) giving the pNPZ47 plasmid (FIG. 1). To introduce the obtained insertionally inactivated rhtB gene into the chromosome of the E. coli strain N99 (the streptomycin-resistant derivative of the known strain W3350 (Campbell, Virology, 14, 22-33, 1961)), the method of Parker and Marinus was used (Parker, B. and Marinus, M. G., Gene, 73, 531-535, 1988).
(§1) Then the susceptibility of the thus obtained E. coli strain N99 rhtB::cat, of the initial strain N99 (rhtB^+) and of its derivative transformed with pRhtB plasmid, N99/pRhtB, to some amino acids and amino acid analogues was tested. overnight cultures of the strains grown in M9 minimal medium at 37° C. with a rotary shaker (10^9 cfu/ml) were diluted 1:100 and grown for 5 hours under the same conditions. Then the log phase cultures thus obtained were diluted and about 10^4 of alive cells were applied to well-dried test plates with M9 agar containing doubling increments of amino acids or analogues. The minimum inhibitory concentration (MIC) of these compounds were examined after 40-46 h cultivation.

For assay [2], the system named is E. coli strain N99/pRhtB. The settings on record: Escherichia coli. The procedure:
as §1

Assay [3] relates to E. coli strain N99 (rhtB+). To be noted: Escherichia coli, initial strain, doubling increments, examined after 40-46 h cultivation. How it is done:
as §1

Each structure is given as a SMILES string.

Experimental findings from patent US6887691B2, “DNA coding for protein which confers on bacterium Escherichia coli resistance to L-homoserine, and method for producing L-amino acids” (priority 1998, dated 2005) are described below.

Consider `NCCSC[C@H](N)C(=O)O` [AEC, S-(2-aminoethyl)-L-cysteine, reference compound], for which the MIC (usually the smallest concentration in the dilution series that meets the test's criterion for growth inhibition) in assay [1] is 10 µg/mL; in assay [2], 25 µg/mL; in assay [3] it was 10 µg/mL.
For `CCCC(N)(O)C(=O)O` (stereo not drawn) [AHVA, α-amino-α-hydroxyvaleric-acid, reference compound], the MIC in assay [1] amounted to 25 µg/mL; in assay [2], 2000 µg/mL; in assay [3], 50 µg/mL.
As to `CN(C)CC(N)C(=O)O` (racemic) [4-aza-DL-leucine, reference compound], the MIC in assay [1] stood at 40 µg/mL; in assay [2], 100 µg/mL; in assay [3] it was 40 µg/mL.
As for `CC(C)[C@H](N)C(=O)O` [L-valine], the MIC in assay [1] came out at 0.5 µg/mL; in assay [2] it was 1 µg/mL; in assay [3] it was 0.5 µg/mL.
Regarding `N[C@@H](CCO)C(=O)O` [L-homoserine], the MIC was 125 µg/mL in assay [1], 30000 µg/mL in assay [2] and 250 µg/mL in assay [3].
Taken in the same sequence, the figures for `N[C@@H](CO)C(=O)O` [L-serine] were 5000 µg/mL, 10000 µg/mL and 5000 µg/mL.
Taken in the same sequence, the figures for `C[C@@H](O)[C@H](N)C(=O)O` [L-threonine] were 30000 µg/mL, 50000 µg/mL and 30000 µg/mL.
